Measured values as given in paper PMC6591251, “Discovery of potent necroptosis inhibitors targeting RIPK1 kinase activity for the treatment of inflammatory disorder and cancer metastasis” (Cell Death & Disease, 2019).

Columns and labels:
Assay in all cases: RBC kinase panel
Format in all cases: biochemical
Details in all cases: ATP 10 μM, Data1, Data2
CDK6/cyclin D1 = target: T1, CDK6/cyclin D1 (Homo sapiens, UniProt Q00534)
T1 construct: purchased Reaction Biology Corporation
Method: (§1) PK68 was tested at 1 μM in duplicate against a panel of 369 human kinases at Reaction Biology Corporation. Results are viewed in the human kinome phylogenetic tree.
(§2) ^a Compound PK68 was tested at 1 μM in duplicate against 369 kinases using the RBC kinase panel service of Reaction Biology Corporation. All the ATP concentrations used were 10 μM. […] Full protocol details are available at http://www.reactionbiology.com.

MLK4 = target: T2, MLK4 (Homo sapiens, UniProt Q5TCX8)
T2 construct: purchased Reaction Biology Corporation
Method: as §1, §2

MYLK3 = target: T3, MYLK3 (Homo sapiens, UniProt Q32MK0)
T3 construct: purchased Reaction Biology Corporation
Method: as §1, §2

CK1a1 = target: T4, CK1a1 (Homo sapiens, UniProt P48729)
T4 construct: purchased Reaction Biology Corporation
Method: as §1, §2

CDK6/cyclin D3 = target: T5, CDK6/cyclin D3 (Homo sapiens, UniProt Q00534)
T5 construct: purchased Reaction Biology Corporation
Method: as §1, §2

PRKX = target: T6, PRKX (Homo sapiens, UniProt P51817)
T6 construct: purchased Reaction Biology Corporation
Method: as §1, §2

CDK2/cyclin E = target: T7, CDK2/cyclin E (Homo sapiens, UniProt P24941)
T7 construct: purchased Reaction Biology Corporation
Method: as §1, §2

HGK/MAP4K4 = target: T8, HGK/MAP4K4 (Homo sapiens, UniProt O95819)
T8 construct: purchased Reaction Biology Corporation
Method: as §1, §2

FLT3 = target: T9, FLT3 (Homo sapiens, UniProt P36888)
T9 construct: purchased Reaction Biology Corporation
Method: as §1, §2

NEK2 = target: T10, NEK2 (Homo sapiens, UniProt P51955)
T10 construct: purchased Reaction Biology Corporation
Method: as §1, §2

STK39/STLK3 = target: T11, STK39/STLK3 (Homo sapiens, UniProt Q9UEW8)
T11 construct: purchased Reaction Biology Corporation
Method: as §1, §2

CSK = target: T12, CSK (Homo sapiens, UniProt P41240)
T12 construct: purchased Reaction Biology Corporation
Method: as §1, §2

ROCK1 = target: T13, ROCK1 (Homo sapiens, UniProt Q13464)
T13 construct: purchased Reaction Biology Corporation
Method: as §1, §2

CAMK1b = target: T14, CAMK1b (Homo sapiens, UniProt Q6P2M8)
T14 construct: purchased Reaction Biology Corporation
Method: as §1, §2

PDGFRa = target: T15, PDGFRa (Homo sapiens, UniProt P16234)
T15 construct: purchased Reaction Biology Corporation
Method: as §1, §2

PKAcg = target: T16, PKAcg (Homo sapiens, UniProt P22612)
T16 construct: purchased Reaction Biology Corporation
Method: as §1, §2

MARK2/PAR-1Ba = target: T17, MARK2/PAR-1Ba (Homo sapiens, UniProt Q7KZI7)
T17 construct: purchased Reaction Biology Corporation
Method: as §1, §2

ACK1 = target: T18, ACK1 (Homo sapiens, UniProt Q07912)
T18 construct: purchased Reaction Biology Corporation
Method: as §1, §2

PDK1/PDPK1 = target: T19, PDK1/PDPK1 (Homo sapiens, UniProt O15530)
T19 construct: purchased Reaction Biology Corporation
Method: as §1, §2

BLK = target: T20, BLK (Homo sapiens, UniProt P51451)
T20 construct: purchased Reaction Biology Corporation
Method: as §1, §2

STK16 = target: T21, STK16 (Homo sapiens, UniProt O75716)
T21 construct: purchased Reaction Biology Corporation
Method: as §1, §2

MEK3 = target: T22, MEK3 (Homo sapiens, UniProt P46734)
T22 construct: purchased Reaction Biology Corporation
Method: as §1, §2

MST2/STK3 = target: T23, MST2/STK3 (Homo sapiens, UniProt Q13188)
T23 construct: purchased Reaction Biology Corporation
Method: as §1, §2

MLK1/MAP3K9 = target: T24, MLK1/MAP3K9 (Homo sapiens, UniProt P80192)
T24 construct: purchased Reaction Biology Corporation
Method: as §1, §2

ITK = target: T25, ITK (Homo sapiens, UniProt Q08881)
T25 construct: purchased Reaction Biology Corporation
Method: as §1, §2

NEK4 = target: T26, NEK4 (Homo sapiens, UniProt P51957)
T26 construct: purchased Reaction Biology Corporation
Method: as §1, §2

STK38/NDR1 = target: T27, STK38/NDR1 (Homo sapiens, UniProt Q15208)
T27 construct: purchased Reaction Biology Corporation
Method: as §1, §2

LYN B = target: T28, LYN B (Homo sapiens, UniProt P07948)
T28 construct: purchased Reaction Biology Corporation
Method: as §1, §2

CK2a2 = target: T29, CK2a2 (Homo sapiens, UniProt P19784)
T29 construct: purchased Reaction Biology Corporation
Method: as §1, §2

CLK4 = target: T30, CLK4 (Homo sapiens, UniProt Q9HAZ1)
T30 construct: purchased Reaction Biology Corporation
Method: as §1, §2

ABL1 = target: T31, ABL1 (Homo sapiens, UniProt P00519)
T31 construct: purchased Reaction Biology Corporation
Method: as §1, §2

MST1/STK4 = target: T32, MST1/STK4 (Homo sapiens, UniProt Q13043)
T32 construct: purchased Reaction Biology Corporation
Method: as §1, §2

EPHA4 = target: T33, EPHA4 (Homo sapiens, UniProt P54764)
T33 construct: purchased Reaction Biology Corporation
Method: as §1, §2

T33 sequence (P54764 20-986): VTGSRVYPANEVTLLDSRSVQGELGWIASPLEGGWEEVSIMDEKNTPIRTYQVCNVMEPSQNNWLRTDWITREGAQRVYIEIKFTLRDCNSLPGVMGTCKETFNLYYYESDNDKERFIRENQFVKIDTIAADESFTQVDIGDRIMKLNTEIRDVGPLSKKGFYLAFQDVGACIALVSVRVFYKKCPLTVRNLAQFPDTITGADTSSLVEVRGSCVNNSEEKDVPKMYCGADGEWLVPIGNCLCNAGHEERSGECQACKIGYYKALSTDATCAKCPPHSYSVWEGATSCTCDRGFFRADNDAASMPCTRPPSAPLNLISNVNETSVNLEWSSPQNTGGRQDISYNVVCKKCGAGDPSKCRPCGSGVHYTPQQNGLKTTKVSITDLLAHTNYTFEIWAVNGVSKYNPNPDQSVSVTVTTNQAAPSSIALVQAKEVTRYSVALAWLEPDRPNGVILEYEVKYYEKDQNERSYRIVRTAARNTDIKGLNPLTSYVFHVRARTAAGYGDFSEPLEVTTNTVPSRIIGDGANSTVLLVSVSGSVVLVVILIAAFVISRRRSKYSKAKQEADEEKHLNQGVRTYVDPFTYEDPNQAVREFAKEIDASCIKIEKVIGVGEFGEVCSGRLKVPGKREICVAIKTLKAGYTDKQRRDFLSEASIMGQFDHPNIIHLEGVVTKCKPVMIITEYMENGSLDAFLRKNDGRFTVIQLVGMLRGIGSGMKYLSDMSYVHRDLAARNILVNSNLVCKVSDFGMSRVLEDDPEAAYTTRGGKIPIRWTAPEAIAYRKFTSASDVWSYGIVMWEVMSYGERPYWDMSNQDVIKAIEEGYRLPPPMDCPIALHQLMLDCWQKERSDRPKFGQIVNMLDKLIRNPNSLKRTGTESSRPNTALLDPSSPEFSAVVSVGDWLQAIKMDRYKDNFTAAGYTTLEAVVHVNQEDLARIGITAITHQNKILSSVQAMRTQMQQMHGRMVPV
T25 sequence (Q08881 whole entry): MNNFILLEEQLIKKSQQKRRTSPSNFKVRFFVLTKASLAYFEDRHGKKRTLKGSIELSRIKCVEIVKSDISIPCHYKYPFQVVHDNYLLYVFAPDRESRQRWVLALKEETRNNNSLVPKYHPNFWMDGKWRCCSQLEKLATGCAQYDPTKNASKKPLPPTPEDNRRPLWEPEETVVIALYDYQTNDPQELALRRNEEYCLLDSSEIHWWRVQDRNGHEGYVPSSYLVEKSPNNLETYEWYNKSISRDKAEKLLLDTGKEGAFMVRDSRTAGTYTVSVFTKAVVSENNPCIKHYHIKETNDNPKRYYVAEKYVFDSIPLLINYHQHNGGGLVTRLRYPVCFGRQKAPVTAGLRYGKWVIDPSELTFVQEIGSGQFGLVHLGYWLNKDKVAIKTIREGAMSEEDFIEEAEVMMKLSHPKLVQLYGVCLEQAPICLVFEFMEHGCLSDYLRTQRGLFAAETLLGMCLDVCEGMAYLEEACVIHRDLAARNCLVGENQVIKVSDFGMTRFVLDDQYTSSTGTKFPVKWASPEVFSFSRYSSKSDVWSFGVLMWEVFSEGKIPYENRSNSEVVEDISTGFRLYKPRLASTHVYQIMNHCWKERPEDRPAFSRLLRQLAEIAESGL
T2 sequence (Q5TCX8 whole entry): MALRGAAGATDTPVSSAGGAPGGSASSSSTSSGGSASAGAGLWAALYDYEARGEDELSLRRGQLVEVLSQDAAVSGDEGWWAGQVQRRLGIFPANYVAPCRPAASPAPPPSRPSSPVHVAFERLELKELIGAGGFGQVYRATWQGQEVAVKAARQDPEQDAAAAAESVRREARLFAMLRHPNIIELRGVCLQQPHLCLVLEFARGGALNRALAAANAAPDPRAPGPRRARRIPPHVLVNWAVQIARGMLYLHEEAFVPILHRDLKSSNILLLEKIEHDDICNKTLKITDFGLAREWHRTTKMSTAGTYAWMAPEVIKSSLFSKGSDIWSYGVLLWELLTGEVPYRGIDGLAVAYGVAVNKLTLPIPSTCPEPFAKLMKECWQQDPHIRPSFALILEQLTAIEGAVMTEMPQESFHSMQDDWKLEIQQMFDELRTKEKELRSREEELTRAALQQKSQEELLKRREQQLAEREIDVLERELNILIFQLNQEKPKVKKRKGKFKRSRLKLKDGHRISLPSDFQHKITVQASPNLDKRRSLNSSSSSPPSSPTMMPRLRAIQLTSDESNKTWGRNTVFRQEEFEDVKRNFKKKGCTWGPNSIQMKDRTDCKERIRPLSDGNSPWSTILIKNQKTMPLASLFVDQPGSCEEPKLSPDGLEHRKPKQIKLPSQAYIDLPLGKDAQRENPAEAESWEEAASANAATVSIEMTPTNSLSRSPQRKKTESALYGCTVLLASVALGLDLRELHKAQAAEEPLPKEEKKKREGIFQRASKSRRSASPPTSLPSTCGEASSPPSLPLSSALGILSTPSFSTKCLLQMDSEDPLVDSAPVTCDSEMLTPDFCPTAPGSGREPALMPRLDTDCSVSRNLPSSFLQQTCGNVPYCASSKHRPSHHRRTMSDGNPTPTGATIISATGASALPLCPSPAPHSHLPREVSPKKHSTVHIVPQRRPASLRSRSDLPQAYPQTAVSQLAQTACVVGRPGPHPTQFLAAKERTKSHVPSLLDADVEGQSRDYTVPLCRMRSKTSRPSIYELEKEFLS
T21 sequence (O75716 whole entry): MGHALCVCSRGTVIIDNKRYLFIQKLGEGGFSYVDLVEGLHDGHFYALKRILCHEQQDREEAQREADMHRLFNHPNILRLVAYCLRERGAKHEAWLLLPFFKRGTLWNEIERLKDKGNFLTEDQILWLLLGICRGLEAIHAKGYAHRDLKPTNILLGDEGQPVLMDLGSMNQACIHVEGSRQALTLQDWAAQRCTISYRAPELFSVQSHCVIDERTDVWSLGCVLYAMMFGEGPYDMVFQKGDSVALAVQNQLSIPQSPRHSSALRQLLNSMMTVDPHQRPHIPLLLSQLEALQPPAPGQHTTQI
T8 sequence (O95819 whole entry): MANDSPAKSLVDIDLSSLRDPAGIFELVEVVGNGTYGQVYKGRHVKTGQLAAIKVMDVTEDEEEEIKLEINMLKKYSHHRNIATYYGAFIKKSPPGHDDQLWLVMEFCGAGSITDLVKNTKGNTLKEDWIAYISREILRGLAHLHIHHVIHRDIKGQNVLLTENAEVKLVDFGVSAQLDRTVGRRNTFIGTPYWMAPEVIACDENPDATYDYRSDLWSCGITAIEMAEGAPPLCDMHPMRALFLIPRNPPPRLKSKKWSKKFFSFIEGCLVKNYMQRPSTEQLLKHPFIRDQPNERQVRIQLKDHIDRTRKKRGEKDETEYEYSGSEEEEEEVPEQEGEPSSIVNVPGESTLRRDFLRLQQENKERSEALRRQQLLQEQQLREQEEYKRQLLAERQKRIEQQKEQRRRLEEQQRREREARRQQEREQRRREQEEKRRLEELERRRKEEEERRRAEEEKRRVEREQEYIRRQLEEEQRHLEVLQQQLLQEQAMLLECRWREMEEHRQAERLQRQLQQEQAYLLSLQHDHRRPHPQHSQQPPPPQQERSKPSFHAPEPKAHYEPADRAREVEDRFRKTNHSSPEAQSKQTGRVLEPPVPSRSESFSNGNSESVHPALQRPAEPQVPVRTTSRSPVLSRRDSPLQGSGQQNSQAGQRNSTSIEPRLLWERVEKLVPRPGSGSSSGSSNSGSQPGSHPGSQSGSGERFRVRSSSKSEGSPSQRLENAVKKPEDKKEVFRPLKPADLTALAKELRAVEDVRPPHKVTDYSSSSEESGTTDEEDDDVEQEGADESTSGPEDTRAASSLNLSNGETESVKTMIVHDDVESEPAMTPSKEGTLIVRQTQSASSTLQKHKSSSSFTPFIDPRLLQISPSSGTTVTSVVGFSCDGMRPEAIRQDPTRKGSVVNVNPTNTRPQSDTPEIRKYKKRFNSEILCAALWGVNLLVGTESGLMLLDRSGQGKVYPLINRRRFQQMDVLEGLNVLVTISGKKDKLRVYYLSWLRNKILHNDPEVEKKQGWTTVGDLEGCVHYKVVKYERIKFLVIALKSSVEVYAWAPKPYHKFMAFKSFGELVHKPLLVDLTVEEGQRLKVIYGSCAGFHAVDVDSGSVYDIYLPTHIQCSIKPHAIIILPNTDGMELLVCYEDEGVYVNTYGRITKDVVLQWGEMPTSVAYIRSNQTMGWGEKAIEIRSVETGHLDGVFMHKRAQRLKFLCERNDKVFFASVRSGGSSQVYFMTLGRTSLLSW
T17 sequence (Q7KZI7 whole entry): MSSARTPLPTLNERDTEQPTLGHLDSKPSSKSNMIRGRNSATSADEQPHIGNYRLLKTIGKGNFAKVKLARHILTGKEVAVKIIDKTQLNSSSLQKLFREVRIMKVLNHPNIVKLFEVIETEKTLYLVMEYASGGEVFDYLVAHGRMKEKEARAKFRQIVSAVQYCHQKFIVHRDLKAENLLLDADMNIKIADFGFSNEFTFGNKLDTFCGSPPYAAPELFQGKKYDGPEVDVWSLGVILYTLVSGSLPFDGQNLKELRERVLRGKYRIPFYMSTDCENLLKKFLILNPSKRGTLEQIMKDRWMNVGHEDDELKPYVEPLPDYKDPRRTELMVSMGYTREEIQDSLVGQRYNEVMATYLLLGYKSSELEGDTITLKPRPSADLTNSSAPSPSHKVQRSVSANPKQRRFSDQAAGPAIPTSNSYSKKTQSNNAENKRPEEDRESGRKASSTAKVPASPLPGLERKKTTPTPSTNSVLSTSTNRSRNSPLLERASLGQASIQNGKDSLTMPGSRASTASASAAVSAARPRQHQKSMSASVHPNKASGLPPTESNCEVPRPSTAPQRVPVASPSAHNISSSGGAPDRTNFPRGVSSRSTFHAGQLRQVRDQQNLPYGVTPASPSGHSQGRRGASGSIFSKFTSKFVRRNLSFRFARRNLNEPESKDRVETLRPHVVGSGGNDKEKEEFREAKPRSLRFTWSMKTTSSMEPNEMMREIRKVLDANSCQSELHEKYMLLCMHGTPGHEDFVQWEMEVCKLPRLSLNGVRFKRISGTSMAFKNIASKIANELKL

CC(=O)Nc1nc2ccc(-c3cnc(C)c(NC(=O)OC4CCCCC4)c3)cc2s1 [PK68, cyclohexyl (5-(2-acetamidobenzo[d]thiazol-6-yl)-2-methylpyridin-3-yl)carbamate]
Activity% (CDK6/cyclin D1; 1 μM): 93.73%
activity at 1 µM (CDK6/cyclin D1): 93.8%
Activity% (MLK4; 1 μM): 104.45%
activity at 1 µM (MLK4): 107%
Activity% (MYLK3; 1 μM): 100.10%
activity at 1 µM (MYLK3): 101%
Activity% (CK1a1; 1 μM): 94.49%
activity at 1 µM (CK1a1): 97%
Activity% (CDK6/cyclin D3; 1 μM): 81.98%
activity at 1 µM (CDK6/cyclin D3): 82.6%
Activity% (PRKX; 1 μM): 103.46%
activity at 1 µM (PRKX): 104%
Activity% (CDK2/cyclin E; 1 μM): 91.99%
activity at 1 µM (CDK2/cyclin E): 93.5%
Activity% (HGK/MAP4K4; 1 μM): 82.64%
activity at 1 µM (HGK/MAP4K4): 84.4%
Activity% (FLT3; 1 μM): 57.70%
activity at 1 µM (FLT3): 58%
Activity% (NEK2; 1 μM): 112.29%
activity at 1 µM (NEK2): 115%
Activity% (STK39/STLK3; 1 μM): 92.54%
activity at 1 µM (STK39/STLK3): 95.8%
Activity% (CSK; 1 μM): 91.36%
activity at 1 µM (CSK): 92.8%
Activity% (ROCK1; 1 μM): 99.31%
activity at 1 µM (ROCK1): 101%
Activity% (CAMK1b; 1 μM): 99.49%
activity at 1 µM (CAMK1b): 101%
Activity% (PDGFRa; 1 μM): 83.70%
activity at 1 µM (PDGFRa): 84.1%
Activity% (PKAcg; 1 μM): 94.66%
activity at 1 µM (PKAcg): 95.6%
Activity% (MARK2/PAR-1Ba; 1 μM): 107.76%
activity at 1 µM (MARK2/PAR-1Ba): 110%
Activity% (ACK1; 1 μM): 84.41%
activity at 1 µM (ACK1): 85.5%
Activity% (PDK1/PDPK1; 1 μM): 90.43%
activity at 1 µM (PDK1/PDPK1): 92.7%
Activity% (BLK; 1 μM): 93.58%
activity at 1 µM (BLK): 95.4%
Activity% (STK16; 1 μM): 85.85%
activity at 1 µM (STK16): 88.2%
Activity% (MEK3; 1 μM): 99.61%
activity at 1 µM (MEK3): 99.7%
Activity% (MST2/STK3; 1 μM): 109.16%
activity at 1 µM (MST2/STK3): 109%
Activity% (MLK1/MAP3K9; 1 μM): 99.64%
activity at 1 µM (MLK1/MAP3K9): 99.7%
Activity% (ITK; 1 μM): 88.47%
activity at 1 µM (ITK): 88.6%
Activity% (NEK4; 1 μM): 97.97%
activity at 1 µM (NEK4): 98.9%
Activity% (STK38/NDR1; 1 μM): 96.05%
activity at 1 µM (STK38/NDR1): 98.9%
Activity% (LYN B; 1 μM): 97.70%
activity at 1 µM (LYN B): 98%
Activity% (CK2a2; 1 μM): 100.37%
activity at 1 µM (CK2a2): 101%
Activity% (CLK4; 1 μM): 70.07%
activity at 1 µM (CLK4): 71%
Activity% (ABL1; 1 μM): 74.18%
activity at 1 µM (ABL1): 74.3%
Activity% (MST1/STK4; 1 μM): 100.43%
activity at 1 µM (MST1/STK4): 100%
Activity% (EPHA4; 1 μM): 92.78%
activity at 1 µM (EPHA4): 92.8%
